Data taken from patent publication US20100150842A1, “Method and Kit for Detecting Resistance in Living Organisms” (priority 2007, published 2010).
Like-named read-outs stand apart in the source and are kept apart here.

Columns and labels:
[1] = cited from earlier work
[2] = tested on: Stellaria media SU-susceptible and SU-resistant biotype; assay: Biomarker pattern (HPPC) in extracts of Stellaria media exposed to iodosulfuron; assay type: in vivo; details: for number of type B biomarkers detected in extracts of susceptible plants: 50% of recommended field dose
Experimental: A SU-susceptible and SU-resistant biotype of Stellaria media was cultivated outdoors in 2-litre pots. At the 4-5 leaf stage the plants were exposed to iodosulfuron (IOD) applied in mixture with a methylated vegetable oil (Renol). Iodosulfuron was applied at 50% of the recommended field dose. The plants were harvested 4, 7 and 14 days after exposure. Immediately after harvest the plants were frozen and freeze-dried.
Freeze-dried plant material (50 mg per ml of 75% ethanol) was extracted in ultrasonic bath with ice for two hours. The extracts were centrifuged before analysis.
A biomarker pattern was detected as phytochemical changes in plant extracts. A comparison of the extracts of an un-treated susceptible (Biotype 1) and an untreated resistant (Biotype 2) of Stellaria media is shown as biomarkers type A. See further description in Example 3.
A comparison of extracts of the same biotypes exposed to iodosulfuron is shown as biomarkers type B. See further description in Example 3.
High Performance Planar Chromatography (HPPC)-systems were used to detect the two types of biomarkers.

[3] = tested on: Papaver rhoeas sensitive and target resistant biotypes; assay: TLC analysis of Papaver rhoeas extracts, unexposed and exposed to Hussar OD; assay type: in vivo
Description: S0=ID 150 Biotype 4 sensitive control S1=ID 150 Biotype 4 sensitive exposed to 1N Hussar OD+0.5 I/ha Renol R0=ID 397 Biotype 5 Target resistant control R1=ID 397 Biotype 5 Target resistant exposed to 1N Hussar OD+0.5 I/ha Renol R10=ID 397 Biotype 5 Target resistant exposed to 10N Hussar OD+0.5 I/ha Renol R20=ID 248 Biotype 6 Target resistant exposed control R21=ID 248 Biotype 6 Target resistant exposed to 1N Hussar OD+0.5 I/ha Renol R210=ID 248 Biotype 6 Target resistant exposed to 10N Hussar OD+0.5 I/ha Renol R30=ID 406 Biotype 12 Target resistant exposed control R31=ID 406 Biotype 12 Target resistant exposed to 1N Hussar OD+0.5 I/ha Renol R310=ID 406 Biotype 12 Target resistant exposed to 10N Hussar OD+0.5 I/ha Renol
100 mg freeze-dried plant material (Papaver rhoeas (Papaveraceae) in 4.00 ml 80% Ethanol extracted for 20 min. in ultrasonic bath (Realisation Etudes Ultra Son (REUS), 16, allée des Cystes, 06390 Contes, France). The extract was filtered through GELMAN GHP Agrodisc 13 0.45 μm.
The extracts (20 μl) were applicated on Silicagel 60 Merck 1.05721 (10×20 cm) or (10 μl) Cellulose aluminium Merck 1.05552.0001 together with the reference 1 0/00 papaverin in ethanol using a TLC Automatic TLC Sampler III.
TLC 5) Plate: Cellulose; Solvent: 2% Acetic acid in Water. The results can be seen in FIG. 7.
Detection: UV 366 nm after derivatisation with NEU+PEG is seen in FIG. 7b.

[4] = tested on: Stellaria media sensitive and target resistant biotypes; assay: TLC analysis of Stellaria media extracts, unexposed and exposed to Hussar OD; assay type: in vivo
Description: S0=ID 1 Biotype 1 sensitive control S1=ID 1 Biotype 1 sensitive exposed to 1N Hussar OD+0.5 I/ha Renol R10=ID 9 Biotype 2 Target resistant control R11=ID 9 Biotype 2 Target resistant exposed to 1N Hussar OD+0.5 I/ha Renol R110=ID 9 Biotype 2 Target resistant exposed to 10N Hussar OD+0.5 I/ha Renol R20=ID 102 Biotype 3 Target resistant exposed control R21=ID 102 Biotype 3 Target resistant exposed to 1N Hussar OD+0.5 I/ha Renol R210=ID 102 Biotype 3 Target resistant exposed to 10N Hussar OD+0.5 I/ha Renol
Et=100 mg freeze-dried plant material in 4.00 ml 80% Ethanol extracted for 20 min. in ultrasonic bath (Réalisation Etudes Ultra Son (REUS), 16, allée des Cystes, 06390 Contes, France).
Aq=50 mg freeze-dried plant material in 4.00 ml 80% Ethanol extracted for 20 min. in ultrasonic bath (Réalisation Etudes Ultra Son (REUS), 16, allée des Cystes, 06390 Contes, France)+200 it EtOH after filtration.
The extracts (10 μl) were applicated on Silicagel 60 Merck 1.05721 (10×20 cm) or (5 μl) Cellulose aluminium Merck 1.05552.0001 with together with the reference T=1 0/00× in ethanol using a TLC Automatic TLC Sampler III.

[5] = tested on: SU-resistant Stellaria media biotypes; assay: Resistance factors of SU-resistant Stellaria media biotypes to herbicides (ratio of ED50 values); assay type: in vivo
Description: The sensitivity to a specific herbicide of each biotype can be tested by determining the amount of herbicide needed to reduce the biomass to 50% of the non-treated plants of the same biotype. When comparing sensitivity among biotypes the “resistance factor” can be used to characterise the sensitivity.
The “resistance factor” is used to characterize the extent of susceptibility and resistance of a species to a herbicide. Resistance factors are typically represented as a ration of ED50 values for different biotypes.
The resistance factor is the ratio of the ED50 value of the resistant and susceptible biotypes.
Results from a study with 6 SU-resistant (Sulfonylurea-resistant) Stellaria media biotypes are included.

[6] = tested on: fish and aquatic invertebrates; details: water bodies; cited from earlier work

## N#Cc1cc(Br)c(O)c(Br)c1 [Bromoxynil]
[1]; most soil types
  half-life: two

## COc1nc(C)nc(NC(=O)NS(=O)(=O)c2cc(I)ccc2C(=O)O)n1 [iodosulfuron]
[2]; 7 and 14 days after exposure
  number of type B biomarkers detected in extracts of susceptible plants: 7
[2]; 4 days after exposure
  number of type B biomarkers detected in extracts of susceptible plants: Five
[2]; SU-resistant Stellaria media biotype
  unique biomarker pattern in extracts: absent
[2]; susceptible Stellaria media biotype, 4, 7 and 14 days after exposure
  unique biomarker pattern in extracts: detected
[3]; Papaver rhoeas biotypes of the target resistant plants
  new flavonoid in plant extract (TLC): not present
[3]; Papaver rhoeas sensitive plant exposed
  new flavonoid in plant extract (TLC): present
[4]; Stellaria media sensitive plant exposed
  new flavonoid in plant extract (TLC): present
[4]; Stellaria media target resistant biotypes, only at very high exposure concentrations (10N)
  new flavonoid in plant extract (TLC): not present

## COc1ncc(F)c2nc(S(=O)(=O)Nc3c(F)cccc3F)nn12 [florasulam]
[5]
  cross-resistance of SU-resistant biotypes: could not be confirmed

## CCC(CC)Nc1c([N+](=O)[O-])cc(C)c(C)c1[N+](=O)[O-] [Pendimethalin]
[6]
  toxicity to fish: toxic

## O=C(O)CNCP(=O)(O)O [Glyphosate]
[1]; degraded by rapid microbial action
  half-life: 3-5 weeks
